Source: patent US20040038201A1, “Diagnostic and therapeutic applications for biomarkers of infection” (Whitehead Institute for Biomedical Research, priority 2002, published 2004)

Experiments:
human macrophages [1] = format: cell-based; details: 24-hour time course; LPS 1 μg/mL, LTA 10 μg/mL, MDP 100 μg/mL, hsps 10 μg/mL
human macrophages [2] = test: Differential (Gram-negative/TLR4-specific) macrophage gene expression after bacterial components or cytokines, HuFL GeneChips; format: cell-based; details: for expression pattern of the 101 genes differentially regulated by Gram-negative versus Gram-positive bacteria: LPS 1 μg/mL, LTA 10 μg/mL, MDP 100 μg/mL, fMLP 100 nM; for induction of the TLR4-induced core cluster of genes by cytokines: IFNs at 1000 units/mL
human macrophages [3] = test: I-TAC ELISA of macrophage supernatants; format: cell-based; details: for I-TAC production by macrophages in response to bacterial components: supernatants after 24 hours, LPS 1 μg/mL, MDP 100 μg/mL; for I-TAC production by macrophages in response to IFNs: 100 units/mL IFN
human macrophages [4] = test: IL-12 p40 ELISA of macrophage supernatants; format: cell-based; details: LPS 1 μg/mL, MDP 100 μg/mL
human macrophages [5] = test: IL-12 p70 ELISA of macrophage supernatants; format: cell-based; details: LPS 1 μg/mL, MDP 100 μg/mL
mycobacterial infection = details: supplemental IL-12; cited from earlier work
[6] = system: M. abscessus infection, M. tuberculosis infection; details: exogenous IL-12 therapy; cited from earlier work
TLR-4 = molecular target: T1, TLR-4 (Homo sapiens, UniProt O00206+Q9Y6Y9); test: TLR-4 antagonist (RSLA) pretreatment, TNF-alpha ELISA of stimulated macrophages; format: cell-based; details: 1 μg/mL RSLA, 30 minutes pretreatment; 10 μg/mL hsp70
T1 construct: endogenous in cells; host or cells: human monocyte-derived macrophages (primary)
Protocol: FIG. 9 is a graphical representation showing a specific TLR-4 antagonist inhibits production of TNF-alpha by hsp70. Monocytes were plated at […] in 96-well Primaria plates and matured to macrophages as described. Cells were washed with Hank's Balanced Salt Solution incubated overnight in DMEM, 1% human serum, and pretreated for 30 minutes at 37° C. with 1 μg/mL Rhodobacter sphaeroides lipid A (RSLA). RSLA is a specific antagonist of TLR-4. Cells were then stimulated with 0.1 MOI E. coli sd-4, 1 μg/mL LPS, or 10 μg/mL hsp70 to duplicate, and culture media was collected at 0, 2, 6, and 12 hours. ELISAs were performed using manufacturer's protocols.

macrophages = format: cell-based, human
STAT1 = test: Phosphorylation of macrophage STAT1; format: cell-based, human
dendritic cells = test: I-TAC production by dendritic cells (ELISA); details: 24 hours after exposure to LPS or lipoteichoic acid

T1 sequence (O00206 24-839): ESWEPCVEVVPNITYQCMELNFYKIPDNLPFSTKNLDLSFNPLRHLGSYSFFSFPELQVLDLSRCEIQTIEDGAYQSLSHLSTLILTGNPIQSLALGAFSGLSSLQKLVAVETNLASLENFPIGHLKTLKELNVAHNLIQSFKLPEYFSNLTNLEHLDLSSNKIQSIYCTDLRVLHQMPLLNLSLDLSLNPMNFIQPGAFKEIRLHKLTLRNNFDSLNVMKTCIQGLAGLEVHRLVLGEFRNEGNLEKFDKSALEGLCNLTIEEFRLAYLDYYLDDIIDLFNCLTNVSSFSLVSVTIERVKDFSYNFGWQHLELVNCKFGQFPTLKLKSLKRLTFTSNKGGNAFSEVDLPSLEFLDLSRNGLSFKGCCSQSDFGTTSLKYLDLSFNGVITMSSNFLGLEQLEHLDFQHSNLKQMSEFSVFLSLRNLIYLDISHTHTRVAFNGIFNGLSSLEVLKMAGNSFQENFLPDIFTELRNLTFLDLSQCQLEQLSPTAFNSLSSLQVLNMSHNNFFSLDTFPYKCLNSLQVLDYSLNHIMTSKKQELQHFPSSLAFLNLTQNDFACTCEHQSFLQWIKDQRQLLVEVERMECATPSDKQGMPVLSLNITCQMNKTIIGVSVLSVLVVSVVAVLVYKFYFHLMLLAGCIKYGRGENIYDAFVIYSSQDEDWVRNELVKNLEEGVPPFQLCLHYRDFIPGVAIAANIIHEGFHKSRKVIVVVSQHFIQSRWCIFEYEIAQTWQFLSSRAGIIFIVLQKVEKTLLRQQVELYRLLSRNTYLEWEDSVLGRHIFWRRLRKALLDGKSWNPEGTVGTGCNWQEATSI
T1 sequence (Q9Y6Y9 17-160 limits assumed): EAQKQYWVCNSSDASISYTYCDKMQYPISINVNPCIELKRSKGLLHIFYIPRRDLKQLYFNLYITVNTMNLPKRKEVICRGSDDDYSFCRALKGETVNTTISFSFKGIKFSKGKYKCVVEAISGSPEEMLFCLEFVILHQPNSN

CC(=O)N[C@H]1C(O)O[C@H](CO)[C@@H](O)[C@@H]1O[C@H](C)C(=O)N[C@@H](C)C(=O)N[C@H](CCC(=O)O)C(N)=O (mixture of isomers) [MDP, muramyl dipeptide]
induction of the macrophage activation program (gene expression changes) (human macrophages [1]): induced the majority of the activation program
induction of the cluster of nine genes specific to Gram-positive bacteria (human macrophages [2]): insufficient to induce this small cluster of genes
expression pattern of the 101 genes differentially regulated by Gram-negative versus Gram-positive bacteria (human macrophages [2]): induced gene expression changes similar to the Gram-positive organisms
I-TAC production by macrophages in response to bacterial components (human macrophages [3]): not
IL-12 p40 secretion by macrophages (human macrophages [4]): elicited
IL-12 p70 production by macrophages in response to bacterial components (human macrophages [5]): did not

IFN-α
induction of the TLR4-induced core cluster of genes by cytokines (human macrophages [2]): sufficient to induce the expression of the TLR4-induced core cluster of genes
I-TAC production by macrophages in response to IFNs (human macrophages [3]): sufficient to induce I-TAC production

IFN-γ: IFN-γ from R&D Systems
induction of the TLR4-induced core cluster of genes by cytokines (human macrophages [2]): sufficient to induce the expression of the TLR4-induced core cluster of genes
I-TAC production by macrophages in response to IFNs (human macrophages [3]): sufficient to induce I-TAC production

IL-12: cytokine incubated with macrophages; exogenous IL-12 therapy in cited studies
induction of the TLR4-induced core cluster of genes by cytokines (human macrophages [2]): failed to induce comparable gene expression changes
clearance of mycobacterial infection in normal mice (mycobacterial infection): enhances the ability of normal mice to clear a mycobacterial infection
clinical outcome in patients with infections refractory to antibiotics and supplemental IFN-γ [6]: rescued two patients

Rhodobacter sphaeroides lipid A [RSLA]
production of TNF-alpha by hsp70-stimulated macrophages after antagonist pretreatment (TLR-4): inhibits

formyl-methionine-leucine-phenylalanine [formyl-MetLeuPhe]
expression pattern of the 101 genes differentially regulated by Gram-negative versus Gram-positive bacteria (human macrophages [2]): failed to induce expression changes that were characteristic of either class of bacteria

hsp70: Recombinant mycobacterial heat shock protein from StressGen
induction of the macrophage activation program (gene expression changes) (human macrophages [1]): induced the majority of the activation program
cytokine elicited relative to the endotoxin-equivalent amount of LPS (macrophages; 0.06 Eu/mL = 13 pg/mL LPS, 10 μg/mL hsp 70): 3-6 times

lipopolysaccharide [LPS]
induction of the macrophage activation program (gene expression changes) (human macrophages [1]): induced the majority of the activation program
gene expression changes compared with whole Gram-negative bacteria (human macrophages [2]): less robust in magnitude and duration
expression pattern of the 101 genes differentially regulated by Gram-negative versus Gram-positive bacteria (human macrophages [2]): recapitulated the expression pattern of the 101 genes
maximum level of I-TAC secretion, macrophages (human macrophages [3]; 24 hours after exposure to LPS or lipoteichoic acid): 2.8 ng/mL
I-TAC production by macrophages in response to bacterial components (human macrophages [3]): induced
IL-12 p40 secretion by macrophages (human macrophages [4]): elicited
IL-12 p70 production by macrophages in response to bacterial components (human macrophages [5]): stimulated p70 production
endotoxin levels that did not stimulate production of either cytokine (TNF-alpha, IL-12 p40) (macrophages; LPS titration): lower than 1.4 Eu/mL
endotoxin required to elicit IL-12 p40 relative to TNF-alpha (macrophages; LPS titration): Roughly 100 fold
phosphorylation of macrophage STAT1 (STAT1): observed
maximum level of I-TAC secretion, dendritic cells (dendritic cells): 59 ng/mL

lipoteichoic acid [LTA]
induction of the macrophage activation program (gene expression changes) (human macrophages [1]): induced the majority of the activation program
induction of the cluster of nine genes specific to Gram-positive bacteria (human macrophages [2]): insufficient to induce this small cluster of genes
expression pattern of the 101 genes differentially regulated by Gram-negative versus Gram-positive bacteria (human macrophages [2]): induced gene expression changes similar to the Gram-positive organisms
I-TAC production by macrophages in response to bacterial components (human macrophages [3]): not

monophosphoryl lipid A
induction of the macrophage activation program (gene expression changes) (human macrophages [1]): failed to induce this set of gene expression changes

B1: IL-10: cytokine incubated with macrophages (protein, UniProt P22301 19-178, looked up)
Interleukin-10: SPGQGTQSENSCTHFPGNLPNMLRDLRDAFSRVKTFFQMKDQLDNLLLKESLLEDFKGYLGCQALSEMIQFYLEEVMPQAENQDPDIKAHVNSLGENLKTLRLRLRRCHRFLPCENKSKAVEQVKNAFNKLQEKGIYKAMSEFDIFINYIEAYMTMKIRN
induction of the TLR4-induced core cluster of genes by cytokines (human macrophages [2]): failed to induce comparable gene expression changes
